The text below walks through data of patent publication US20080312435A1, “Imine Compound” (TAISHO PHARMACEUTICAL CO., LTD., priority 2004, published 2008).

The structures appear in SMILES notation. pIC50: −log10 of the molar value.

Usually melting point stands for the temperature of the solid-liquid transition. Broadly, the pIC50 is the IC50 on a negative log10 scale, so that one unit is a factor of ten.

T1 sequence (P34972 whole entry): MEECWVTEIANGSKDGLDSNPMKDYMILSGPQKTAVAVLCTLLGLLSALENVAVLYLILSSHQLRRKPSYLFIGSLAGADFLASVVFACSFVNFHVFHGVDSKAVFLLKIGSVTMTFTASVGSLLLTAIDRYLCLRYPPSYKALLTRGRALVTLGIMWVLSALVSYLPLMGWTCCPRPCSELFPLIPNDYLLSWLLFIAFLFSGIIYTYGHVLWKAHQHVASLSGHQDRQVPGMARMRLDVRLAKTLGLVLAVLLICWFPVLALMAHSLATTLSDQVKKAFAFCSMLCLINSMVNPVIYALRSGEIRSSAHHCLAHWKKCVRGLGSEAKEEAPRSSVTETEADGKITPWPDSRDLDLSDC

System in one data set: not given
Assay: not given
Conditions: not given
Take `COCCn1c(C)c(C)s/c1=N\C(=O)c1cccc(C(F)(F)F)c1`: the melting point was 64 to 66 °C. Still for that read-out and setting: the same measure for `CCn1c(C)c(C(C)C)s/c1=N\C(=O)c1cccc(C(F)(F)F)c1F`: 64 to 66 °C; for `Cc1c(C(C)(C)C)s/c(=N\C(=O)c2cccc(C(F)(F)F)c2)n1C`: 140 to 142 °C; for `Cc1c(C(C)(C)C)s/c(=N\C(=O)c2cccc(F)c2F)n1C`: 176 to 178 °C. Molecule `O=C(/N=c1\ccccn1CCC1CC1)c1cccc(C(F)(F)F)c1F` showed a melting point of 56 to 58 °C. On to `CCOCCn1cccc/c1=N\C(=O)c1cccc(C(F)(F)F)c1F`, for which the melting point lay in the range of 104.5 to 105.5 °C.

In turn, `Cc1c(C(C)(C)C)s/c(=N\C(=O)c2cc(C(F)(F)F)ccc2F)n1C` returned a melting point of 140 to 142 °C.

Turning to `CCn1c(C)c(C(C)(C)C)s/c1=N\C(=O)c1cccc(C(F)(F)F)c1`, the melting point fell in the range of 158 to 160 °C. Same read-out and setting: the same measure for `CCn1c(C)c(C(C)(C)C)s/c1=N\C(=O)CC1CCCC1`: 149 to 150 °C. `CCn1c(C)c(C(C)(C)C)s/c1=N\C(=O)c1cc(C(F)(F)F)ccc1C`: the melting point lay in the range of 63 to 65 °C.

`Cc1c(C(C)(C)C)s/c(=N\C(=O)c2cccc(C(F)(F)F)c2)n1C(C)C` showed a melting point of 135 to 137 °C. On the same count and under the same terms, the same measure for `Cc1c(C(C)(C)C)s/c(=N\C(=O)c2ccc(Cl)cc2)n1CC1CC1`: 94 to 95 °C. Molecule `O=C(/N=c1\ccccn1CC1CC1)c1cccc(C(F)(F)F)c1` had a melting point of 105.5 to 106.5 °C. On to `Cc1c(C(C)(C)C)s/c(=N\C(=O)c2cccc(N3CCCC3)c2)n1CC1CC1`, for which the melting point lay within 118 to 120 °C. `Cc1c(C(C)(C)C)s/c(=N\C(=O)c2cccc(N3CCCCC3)c2)n1CC1CC1` registered a melting point of 89 to 90 °C.

With `Cc1c(C(C)(C)C)s/c(=N\C(=O)c2cccc(N3CCN(C)CC3)c2)n1CC1CC1`, the melting point fell in the range of 126 to 128 °C. The molecule `Cc1c(C(C)(C)C)s/c(=N\C(=O)c2cccc(C(N)=O)c2)n1CC1CC1` gave a melting point of 76 to 78 °C. Molecule `COC(=O)c1ccc(C(=O)/N=c2\sc(C(C)(C)C)c(C)n2CC2CC2)cc1` came in with a melting point of 122 to 123 °C.

Turning to `Cc1c(C(C)(C)C)s/c(=N\C(=O)c2ccc(C(=O)O)cc2)n1CC1CC1`, the melting point was 196 to 197 °C.

`O=C(/N=c1\ccc(C(F)(F)F)cn1CC1CC1)c1ccccc1C(F)(F)F`: the melting point fell in the range of 93 to 93.5 °C. As for `Cc1c(CC(C)(C)C(C)(C)C)s/c(=N\C(=O)c2cc(C(F)(F)F)ccc2F)n1CC1CC1`, the melting point lay within 88 to 89 °C.

Consider `O=C(/N=c1\ccc(C(F)(F)F)cn1CC1CC1)c1cccc(C(F)(F)F)c1`, for which the melting point fell in the range of 84 to 85 °C. For the molecule `CCCNc1ccc(C(F)(F)F)cc1C(=O)/N=c1\sc(C(C)(C)C)c(C)n1CC1CC1`, the melting point was 131 to 132 °C. With `COCCNC1=C(C(=O)/N=c2\sc(C(C)(C)C)c(C)n2CC2CC2)CC(C(F)(F)F)C=C1` (centres unmarked), the melting point lay within 131 to 132 °C. Same read-out and setting: the same measure for `Cc1c(C(C)(C)C)s/c(=N\C(=O)c2cc(C(F)(F)F)ccc2N2CCC2)n1CC1CC1`: 100 to 102 °C.

`CCN(CC)c1ccc(C(F)(F)F)cc1C(=O)/N=c1\sc(C(C)(C)C)c(C)n1CC1CC1`: the melting point fell in the range of 131 to 133 °C.

Molecule `Cc1c(C(C)(C)C)s/c(=N\C(=O)c2cc(C(F)(F)F)ccc2N2CCCCC2)n1CC1CC1` came in with a melting point of 138 to 140 °C. On to `CCc1ccnc(C(=O)/N=c2\sc(C(C)(C)C)c(C)n2CC2CC2)c1`, for which the melting point was 104 to 106 °C. In turn, `COc1cc(C(=O)/N=c2\sc(C(C)(C)C)c(C)n2CC2CC2)cc(Cl)n1` came in with a melting point of 127 to 128 °C.

Take `Cc1c(C(C)(C)C)s/c(=N\C(=O)C(F)(F)C(F)F)n1CC1CC1`: the melting point lay in the range of 93 to 94 °C.

`COc1ccc(OC)c(CC(=O)/N=c2\sc(C(C)(C)C)c(C)n2CC2CC2)c1` showed a melting point of 89 to 91 °C. Molecule `COCCn1c(C)c(C(C)(C)C)s/c1=N\C(=O)c1ccc(Cl)cc1F` came in with a melting point of 68 to 69 °C.

In the case of `Cc1c(C(C)(C)C)s/c(=N\C(=O)c2cccc(C(F)(F)F)c2)n1CCO`, the melting point fell in the range of 147 to 149 °C. The same measure, in the same setting: the same measure for `Cc1c(C(C)(C)C)s/c(=N\C(=O)c2cccc(C(F)(F)F)c2)n1CCN`: 76 to 78 °C.

Turning to `Cc1c(C(=O)O)s/c(=N\C(=O)c2cccc(C(F)(F)F)c2)n1CC1CC1`, the melting point was in the range of 291 to 293 °C. As to `Cc1c(C(=O)N(C)C)s/c(=N\C(=O)c2cccc(C(F)(F)F)c2)n1CC1CC1`, the melting point lay in the range of 138 to 140 °C. On the same count and under the same terms, the same measure for `Cc1c(C(=O)NCCN2CCOCC2)s/c(=N\C(=O)c2cccc(C(F)(F)F)c2)n1CC1CC1`: 156 to 158 °C; for `Cc1s/c(=N\C(=O)c2cccc(C(F)(F)F)c2)n(CC2CC2)c1-c1ccccc1`: 161 to 162 °C; for `Cc1c(C(C)C)o/c(=N\C(=O)c2cc(C(F)(F)F)ccc2F)n1CC1CC1`: 76 to 78 °C. In turn, `COc1ccc(C(F)(F)F)cc1C(=O)/N=c1\oc(C(C)C)c(C)n1CC1CC1` showed a melting point of 118 to 120 °C. `Cc1ccccc1C(=O)/N=c1/sc2cccc(Cl)c2n1CC1CC1` showed a melting point of 146 to 148 °C. Same read-out and setting: the same measure for `O=C(/N=c1\ccc(-c2ccccc2)cn1CC1CC1)c1cccc(C(F)(F)F)c1F`: 115 to 116 °C; for `O=C(/N=c1\sc2c(n1CC1CC1)CCCC2)c1cccc(C(F)(F)F)c1`: 159 to 160 °C; for `COc1ccc/c(=N\C(=O)c2cccc(C(F)(F)F)c2F)n1CC1CC1`: 126 to 128 °C.

`O=C(/N=c1\c(F)cc(F)cn1CC1CC1)c1cccc(C(F)(F)F)c1F` came in with a melting point of 69 to 71 °C. On the same count and under the same terms, the same measure for `COc1ccc(C(=O)/N=c2\cc(C)cc(C)n2C)c(OC)c1`: 117.5 to 118 °C. With `Cc1c/c(=N\C(=O)c2cccc(C(F)(F)F)c2F)n(CCC2CC2)n1C`, the melting point lay in the range of 97 to 98 °C.

The molecule `CCOCCn1/c(=N/C(=O)c2cccc(C(F)(F)F)c2F)cc(C)n1C` had a melting point of 136 to 137 °C. The same measure, in the same setting: the same measure for `Cc1c/c(=N\C(=O)c2cccc(C(F)(F)F)c2F)n(CCOC(C)C)n1C`: 88 to 90 °C. For the molecule `Cn1c(C(C)(C)C)c/c(=N\C=O)n1CC1CC1`, the melting point is 122 to 124 °C. On the same count and under the same terms, the same measure for `CC(C)c1ccccc1C(=O)/N=c1\cc(C(C)(C)C)n(C)n1CC1CC1`: 113 to 114 °C; for `Cn1c(C(C)(C)C)c/c(=N\C(=O)c2ccccc2C(F)(F)F)n1CC1CC1`: 83 to 85 °C; for `Cn1c(C(C)(C)C)c/c(=N\C(=O)c2cccc(Br)c2F)n1CC1CC1`: 127 to 128 °C.

`Cc1cccc(C(=O)/N=c2\cc(C(C)(C)C)n(C)n2CC2CC2)c1Br` returned a melting point of 153 to 155 °C. On to `Cn1c(C(C)(C)C)c/c(=N\C(=O)c2cc(Cl)ccc2Cl)n1CC1CC1`, for which the melting point was 164 to 165 °C. Molecule `Cn1c(C(C)(C)C)c/c(=N\S(=O)(=O)c2cccc(C(F)(F)F)c2)n1CC1CC1` registered a melting point of 121 to 122 °C.

On to `CC(C)(C)c1nn(CC2CC2)/c(=N/C(=O)c2ccc(F)cc2C(F)(F)F)s1`, for which the melting point fell in the range of 76 to 78 °C. `CC(C)(C)c1nn(CC2CC2)/c(=N/C(=O)c2cnccc2Cl)s1` returned a melting point of 62 to 63 °C.

Turning to `CC(C)(C)c1nn(CC2CC2)/c(=N/C(=O)c2cc(C(F)(F)F)ccc2F)o1`, the melting point is 61 to 63 °C. On to `COc1ccc(C(F)(F)F)cc1C(=O)/N=c1\cc(C(C)(C)C)on1CC1CC1`, for which the melting point was in the range of 64 to 65 °C. The molecule `CCn1cc(C)s/c1=N\C(=O)c1cccc(C(F)(F)F)c1F` yielded a melting point of 90 to 92 °C.

Molecule `Cc1cn(CC2CC2)/c(=N\C(=O)c2cccnc2)s1` returned a melting point of 115 to 117 °C. The same measure, in the same setting: the same measure for `Cc1s/c(=N\C(=O)c2cccc(C(F)(F)F)c2F)n(C)c1C`: 182 to 183 °C; for `Cc1s/c(=N\C(=O)c2ccccc2Cl)n(CC2CC2)c1C`: 125 to 127 °C. The molecule `CC(C)n1cccc/c1=N\C(=O)c1cccc(C(F)(F)F)c1F` registered a melting point of 86 to 88 °C.

Molecule `Cc1s/c(=N\C(=O)c2ccc(F)cc2Br)n(CC2CC2)c1C` registered a melting point of 144 to 146 °C.

`Cc1s/c(=N\C(=O)c2ccc(F)cc2C(F)(F)F)n(CC2CC2)c1C` came in with a melting point of 143 to 144 °C. The same measure, in the same setting: the same measure for `CC[C@H](C(=O)/N=c1\sc(C)c(C)n1CC1CC1)c1ccccc1` (racemic): 108 to 110 °C.

Another data set addresses T1, human CB2 receptor (Homo sapiens, UniProt P34972).
T1 construct: expressed in transfected cells
In words: Human CB2 receptor binding inhibition test ([3H]CP-55,940, CHO membrane fractions).
Conditions: not given
An excerpt: Human CB2 Receptor Binding Inhibition Test
First, cDNA sequence (Munro et al., Nature, 1993, 365, 61-65) encoding a human CB2 receptor was inserted in the forward direction in an animal-cell expression vector, pTARGET Vector (manufactured by Promega) at a region downstream of a CMV promoter. Host cells CHO-DHFR(−) were transfected with the obtained expression vector with the aid of Lipofectamine (manufactured by Invitrogen) to obtain cells capable of stably expressing the CB2 receptor.
After the filtrate was washed with an assay buffer containing 0.1% bovine serum albumin, the radioactivity on the glass filter was measured by a liquid scintillation counter. Nonspecific binding was measured in the presence of 2.0 μM CP-55,940 (manufactured by Tocris). 50% inhibitory concentration (IC50 value) of the test compound for the specific binding was obtained.
`Cn1c(C(C)(C)C)c/c(=N\C(=O)c2cccc(C(F)(F)F)c2Cl)n1CC1CC1` [Compound No. 476, N-(5-t-butyl-2-cyclopropylmethyl-1,2-dihydro-1-methylpyrazol-3-ylidene)-2-chloro-3-(trifluoromethyl)benzamide] gave a negative-log IC50 (pIC50) of 8.41.

The data set is the same for the next values; noted with them: [3H]CP-55,940, membrane fractions of CHO cells stably expressing human CB2 receptor, 25° C., 2 hours; read-out: CB2 IC50 (Inhibition of binding to human CB2 receptor).
On to `CC(C)(C)c1c/c(=N\C(=O)c2cc(C(F)(F)F)ccc2F)n(CC2CC2)o1` [compound 54], for which the pIC50 is 7.73. On the same count and under the same terms, the same measure for `CC(C)(C)c1c/c(=N\C(=O)c2cccc(C(F)(F)F)c2)n(CC2CC2)s1` [compound 57]: 8.42; for `CCc1ccccc1C(=O)/N=c1\sc(C(C)(C)C)c(C)n1CC` [compound 150]: 7.82. As to `CCn1c(C)c(C(C)(C)C)s/c1=N\C(=O)c1ccc(Cl)cc1OC` [compound 168], the pIC50 is 8.27. Same read-out and setting: the same measure for `Cc1c(C(C)(C)C)s/c(=N\C(=O)c2cccc(Cl)c2)n1CC1CC1` [compound 187]: 7.77.
